Measured values: patent US7915270B2, “Oxazole ketones as modulators of fatty acid amide hydrolase” (The Scripps Research Institute, priority 2006, dated 2011)

Assays:
[1] = Solubility determination in water; type: physicochemical; details: thermodynamic from solid; in water at 5, 1 and 0.1 mg/mL; pH of resulting solutions 7-8.5
Method: Physical Chemical Properties
Solubility determinations were made by mixing the test compound in water at 5 mg/mL, 1 mg/mL, and 0.1 mg/mL concentrations. The pH of the resulting solutions was 7-8.5.

FAAH = target: T1, FAAH (Homo sapiens, UniProt O00519); assay: Assay Method 1B: FAAH assay, 3H-anandamide hydrolysis in cell homogenate (T84 or SK-N-MC cells transfected with human FAAH); type: biochemical; parameters: expressed in transfected cells; details: 3H-AEA 80 nM, rt 1 h, pH 9
T1 sequence (O00519 1-579): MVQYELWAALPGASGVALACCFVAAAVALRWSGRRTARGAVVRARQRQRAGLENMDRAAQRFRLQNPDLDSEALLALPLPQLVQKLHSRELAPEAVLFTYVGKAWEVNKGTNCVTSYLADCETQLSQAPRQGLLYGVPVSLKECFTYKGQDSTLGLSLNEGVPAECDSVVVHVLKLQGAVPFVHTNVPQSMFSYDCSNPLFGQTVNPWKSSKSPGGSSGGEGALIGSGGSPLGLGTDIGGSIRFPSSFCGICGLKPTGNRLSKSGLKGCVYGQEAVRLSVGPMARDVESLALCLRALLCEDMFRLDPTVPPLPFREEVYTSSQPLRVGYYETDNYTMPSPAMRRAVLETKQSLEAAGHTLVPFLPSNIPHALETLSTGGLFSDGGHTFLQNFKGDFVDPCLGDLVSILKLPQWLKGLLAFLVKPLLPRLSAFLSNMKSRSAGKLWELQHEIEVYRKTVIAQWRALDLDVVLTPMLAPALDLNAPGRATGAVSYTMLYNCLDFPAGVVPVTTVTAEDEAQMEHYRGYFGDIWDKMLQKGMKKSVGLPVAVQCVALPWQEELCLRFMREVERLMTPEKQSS

Row | solubility [1] [µg/mL] | IC50 (FAAH) [pM] | SMILES
1 | > 5000 | 400 | O=C(O)c1cccc(-c2cnc(C(=O)CCCCCCc3ccccc3)o2)n1 [Example 37, 6-(2-(7-Phenylheptanoyl)oxazol-5-yl)picolinic acid]
2 | > 5000 | 200 | O=C(O)c1ccc(-c2cnc(C(=O)CCCCCCc3ccccc3)o2)nc1 [Example 38, 6-(2-(7-Phenylheptanoyl)oxazol-5-yl)nicotinic acid]
